Source: ChEMBL document CHEMBL1201862, “PubChem BioAssay data set” (2004)
Activity calls are given as the source filed them.

Experiments:
[1] = molecular target: T1, Carboxy-terminal domain RNA polymerase II polypeptide A small phosphatase 1 (Homo sapiens, UniProt Q9GZU7); experiment: inhibitors of CTDSP1, concentration-response testing, biochemical assay, absorbance-based, actives from ultra-high-throughput screening (AID 540297); type: functional
T1 sequence (Q9GZU7 whole entry): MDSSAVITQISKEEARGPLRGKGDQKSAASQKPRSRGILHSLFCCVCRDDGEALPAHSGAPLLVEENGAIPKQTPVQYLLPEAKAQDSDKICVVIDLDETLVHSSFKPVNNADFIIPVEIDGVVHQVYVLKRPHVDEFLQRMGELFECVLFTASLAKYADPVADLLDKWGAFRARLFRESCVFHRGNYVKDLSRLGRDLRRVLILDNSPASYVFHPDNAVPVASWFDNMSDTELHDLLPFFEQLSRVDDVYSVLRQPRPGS

[2] = molecular target: T2, Histone-lysine N-methyltransferase NSD2 (Homo sapiens, UniProt O96028); type: biochemical
T2 sequence (O96028 whole entry): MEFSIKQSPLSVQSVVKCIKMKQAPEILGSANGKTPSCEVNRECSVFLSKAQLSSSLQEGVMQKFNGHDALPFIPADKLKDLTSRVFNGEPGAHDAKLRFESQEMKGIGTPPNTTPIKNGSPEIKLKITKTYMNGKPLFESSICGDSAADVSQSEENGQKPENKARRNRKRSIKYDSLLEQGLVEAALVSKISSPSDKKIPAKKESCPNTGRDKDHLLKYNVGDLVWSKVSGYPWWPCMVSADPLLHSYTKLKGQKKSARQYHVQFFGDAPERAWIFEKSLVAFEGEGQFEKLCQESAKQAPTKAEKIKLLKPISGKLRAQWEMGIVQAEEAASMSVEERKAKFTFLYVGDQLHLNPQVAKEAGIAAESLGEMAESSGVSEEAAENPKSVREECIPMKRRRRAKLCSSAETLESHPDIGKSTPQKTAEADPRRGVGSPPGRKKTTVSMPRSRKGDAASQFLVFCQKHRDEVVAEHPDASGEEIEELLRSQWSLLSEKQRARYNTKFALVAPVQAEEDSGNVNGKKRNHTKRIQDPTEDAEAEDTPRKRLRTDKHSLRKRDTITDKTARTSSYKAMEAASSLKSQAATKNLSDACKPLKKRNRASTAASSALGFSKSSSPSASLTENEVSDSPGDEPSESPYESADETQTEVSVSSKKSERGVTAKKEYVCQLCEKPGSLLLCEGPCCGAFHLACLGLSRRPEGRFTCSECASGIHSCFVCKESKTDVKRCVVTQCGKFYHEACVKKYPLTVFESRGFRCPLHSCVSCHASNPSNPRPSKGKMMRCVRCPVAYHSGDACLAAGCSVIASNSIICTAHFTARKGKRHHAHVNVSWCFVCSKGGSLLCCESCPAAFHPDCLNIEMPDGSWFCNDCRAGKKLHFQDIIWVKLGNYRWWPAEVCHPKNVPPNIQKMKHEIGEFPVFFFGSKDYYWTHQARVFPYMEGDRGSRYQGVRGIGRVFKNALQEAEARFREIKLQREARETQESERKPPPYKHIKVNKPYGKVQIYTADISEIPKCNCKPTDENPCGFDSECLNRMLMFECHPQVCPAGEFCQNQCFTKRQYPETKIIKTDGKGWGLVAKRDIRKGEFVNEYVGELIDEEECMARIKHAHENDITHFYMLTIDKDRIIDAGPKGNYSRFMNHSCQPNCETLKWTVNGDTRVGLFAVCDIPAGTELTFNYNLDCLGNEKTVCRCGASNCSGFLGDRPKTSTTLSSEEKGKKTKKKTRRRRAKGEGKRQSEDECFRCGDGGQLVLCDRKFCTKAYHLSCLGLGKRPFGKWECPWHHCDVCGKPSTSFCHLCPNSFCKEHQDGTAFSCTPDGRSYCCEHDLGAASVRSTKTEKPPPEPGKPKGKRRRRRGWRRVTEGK

[3] = molecular target: T3, Zinc finger protein mex-5 (Caenorhabditis elegans, UniProt Q9XUB2); experiment: MEX-5/TCR-2 RNA interaction inhibitors, dose response, biochemical, C. elegans, fluorescence polarization (AID 1960)
T3 sequence (Q9XUB2 whole entry): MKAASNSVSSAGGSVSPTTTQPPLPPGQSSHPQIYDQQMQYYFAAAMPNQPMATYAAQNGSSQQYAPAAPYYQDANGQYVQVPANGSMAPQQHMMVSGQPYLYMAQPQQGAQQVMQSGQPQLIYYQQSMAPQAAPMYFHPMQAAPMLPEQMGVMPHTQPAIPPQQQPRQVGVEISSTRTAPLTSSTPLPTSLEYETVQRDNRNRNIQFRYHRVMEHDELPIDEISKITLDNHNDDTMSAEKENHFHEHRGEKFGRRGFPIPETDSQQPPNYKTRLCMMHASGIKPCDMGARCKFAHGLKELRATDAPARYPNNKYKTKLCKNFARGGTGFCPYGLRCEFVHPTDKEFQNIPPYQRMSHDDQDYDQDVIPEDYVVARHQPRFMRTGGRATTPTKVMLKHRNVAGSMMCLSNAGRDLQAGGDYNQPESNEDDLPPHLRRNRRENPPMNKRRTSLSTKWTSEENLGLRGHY

[4] = molecular target: T4, RNA-binding protein pos-1 (Caenorhabditis elegans, UniProt G5EF15); experiment: inhibitors of POS-1/mex-3 RNA binding, dose response, biochemical, fluorescence polarization (AID 1964);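 further: purified POS-1 fused to maltose binding protein made in E. coli; potency of compounds blocking POS-1 binding to fluorescent RNA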
T4 sequence (G5EF15 whole entry): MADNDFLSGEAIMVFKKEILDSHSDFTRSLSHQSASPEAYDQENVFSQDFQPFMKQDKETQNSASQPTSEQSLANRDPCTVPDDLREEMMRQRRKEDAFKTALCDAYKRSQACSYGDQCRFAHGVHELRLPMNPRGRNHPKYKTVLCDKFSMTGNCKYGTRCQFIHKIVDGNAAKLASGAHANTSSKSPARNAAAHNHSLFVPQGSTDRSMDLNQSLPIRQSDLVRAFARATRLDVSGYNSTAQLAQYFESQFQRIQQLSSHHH

[5] = molecular target: T5, Microphthalmia-associated transcription factor (Homo sapiens, UniProt O75030); experiment: TRPM1 promoter luciferase signal decrease, dose response, MITF inhibitor project, cell-based, SK-MEL-5, cherry-picked, set 3 (AID 493073); type: functional
T5 sequence (O75030 whole entry): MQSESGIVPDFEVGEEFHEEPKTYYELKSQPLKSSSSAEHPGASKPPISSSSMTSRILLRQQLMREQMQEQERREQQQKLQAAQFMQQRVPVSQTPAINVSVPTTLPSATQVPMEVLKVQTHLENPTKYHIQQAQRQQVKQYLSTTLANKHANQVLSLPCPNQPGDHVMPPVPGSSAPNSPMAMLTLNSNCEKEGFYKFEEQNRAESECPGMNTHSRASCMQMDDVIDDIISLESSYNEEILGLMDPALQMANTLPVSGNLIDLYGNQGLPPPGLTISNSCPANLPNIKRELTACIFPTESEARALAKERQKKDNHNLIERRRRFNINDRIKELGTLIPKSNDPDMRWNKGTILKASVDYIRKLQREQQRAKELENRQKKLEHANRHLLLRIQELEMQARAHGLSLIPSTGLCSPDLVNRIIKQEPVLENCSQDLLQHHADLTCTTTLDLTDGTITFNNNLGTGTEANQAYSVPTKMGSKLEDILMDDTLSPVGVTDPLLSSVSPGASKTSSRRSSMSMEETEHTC

cells = type: functional
[6] = molecular target: Heat shock protein HSP 90-alpha (Homo sapiens, UniProt P07900); type: functional, organism-based
Genome polyprotein = Genome polyprotein (dengue virus type 2, UniProt P29990); experiment: Dengue-2 NS5 methyltransferase inhibitors, primary screen, biochemical, confirmation dose response (AID 588689); type: functional
[7] = inhibitors of HIV Env-driven cell fusion, dose response, cherry-pick (AID 652057); type: functional, cell-based
[8] = off-target signal loss in HeLa-CEM21 co-culture – HeLa F-luc CTL cells, cherry-picked, counter-screen for HIV-1 Env fusion inhibitor project, dose response (AID 652040); type: functional, cell-based;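 further: potency for signal decrease marking cytotoxic or nonspecific inhibition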
[9] = Luminescence Cell-Based Dose Retest to Confirm Inhibitors of Cancer Stem Cells. [Related pubchem assays (depositor defined):AID2717, AID2721]; type: functional; details: Homo sapiens
[10] = inhibitors of clade B AD8 Env fusion, dose response, cell-based, cherry-pick (AID 652062); type: functional;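 further: luciferase signal from cell-cell fusion driven by HIV-1 clade B AD8 Env; potency is for inhibitors of fusion seen as a drop in luminescence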
[11] = ZM109 Env clade C HIV-1 fusion inhibitors, dose response, HeLa effector, CEM target cells, luciferase, cherry-pick (AID 652058); type: functional, cell-based
Paired box protein Pax-8 = Paired box protein Pax-8 (Homo sapiens, UniProt Q06710); experiment: inhibitors of PAX8-driven TPO luciferase reporter, dose response, RMG-I cells, cherry-pick (AID 687027); type: functional, cell-based;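 further: luciferase reporter driven by Pax8 target thyroperoxidase promoter measured by SteadyGlo luminescence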
SN12K1 = experiment: cells; type: functional; details: Homo sapiens
P388/ADR = experiment: cells; type: functional; details: Mus musculus

Paired box protein Pax-8, sequence (Q06710 whole entry): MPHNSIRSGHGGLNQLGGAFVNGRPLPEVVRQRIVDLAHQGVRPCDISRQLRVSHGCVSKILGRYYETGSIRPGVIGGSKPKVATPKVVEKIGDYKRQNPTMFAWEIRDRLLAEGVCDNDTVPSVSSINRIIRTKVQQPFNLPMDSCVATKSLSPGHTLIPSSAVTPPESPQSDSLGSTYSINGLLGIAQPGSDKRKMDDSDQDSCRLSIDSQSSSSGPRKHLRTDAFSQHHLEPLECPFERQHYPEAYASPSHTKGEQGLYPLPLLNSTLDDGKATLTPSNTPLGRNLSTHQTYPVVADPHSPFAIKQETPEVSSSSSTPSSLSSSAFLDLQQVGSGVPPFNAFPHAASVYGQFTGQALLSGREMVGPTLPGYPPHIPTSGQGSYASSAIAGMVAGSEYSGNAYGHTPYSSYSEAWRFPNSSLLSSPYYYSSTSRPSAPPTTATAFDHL
Genome polyprotein, sequence (P29990 2492-3391 limits assumed): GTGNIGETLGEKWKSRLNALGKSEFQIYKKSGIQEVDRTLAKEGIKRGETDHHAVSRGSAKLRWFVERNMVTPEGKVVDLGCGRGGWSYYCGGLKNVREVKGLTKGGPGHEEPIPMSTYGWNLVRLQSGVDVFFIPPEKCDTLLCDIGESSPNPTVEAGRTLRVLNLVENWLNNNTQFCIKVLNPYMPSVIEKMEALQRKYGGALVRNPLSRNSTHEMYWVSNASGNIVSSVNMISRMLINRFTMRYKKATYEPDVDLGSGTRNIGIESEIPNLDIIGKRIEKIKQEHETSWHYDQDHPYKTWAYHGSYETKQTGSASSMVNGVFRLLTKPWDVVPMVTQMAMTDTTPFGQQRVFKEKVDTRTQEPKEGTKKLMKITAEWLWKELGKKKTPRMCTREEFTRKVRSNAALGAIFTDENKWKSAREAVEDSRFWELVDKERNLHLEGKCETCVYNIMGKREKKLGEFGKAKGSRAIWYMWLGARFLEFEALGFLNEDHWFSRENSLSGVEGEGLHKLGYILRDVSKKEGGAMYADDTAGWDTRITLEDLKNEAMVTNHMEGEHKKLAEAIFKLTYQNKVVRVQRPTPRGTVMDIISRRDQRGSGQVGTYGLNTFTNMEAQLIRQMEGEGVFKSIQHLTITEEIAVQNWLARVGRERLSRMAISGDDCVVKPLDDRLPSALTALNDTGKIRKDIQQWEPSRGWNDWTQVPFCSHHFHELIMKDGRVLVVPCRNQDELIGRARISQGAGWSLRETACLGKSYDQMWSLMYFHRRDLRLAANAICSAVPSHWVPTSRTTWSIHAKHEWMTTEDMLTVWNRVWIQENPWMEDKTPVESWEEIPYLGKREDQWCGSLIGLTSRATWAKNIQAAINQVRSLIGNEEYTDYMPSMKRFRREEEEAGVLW

For `CC(=O)Nc1ccc(NC(=O)CSc2nc(N)c(NC(=O)c3ccccc3F)c(=O)[nH]2)cc1`, the IC50 [1] was 11.9 µM (active).
With `CNCCCc1ccccc1` the AC50 [2] was > 20 µM (inactive).
In the case of `Fc1cc(F)cc(-c2c(-c3ccccc3)ncc3ccc(F)cc23)c1`, the IC50 [1] is reported as 8.88 µM (active).
With `CN(C)C(=O)COC(=O)c1ccc(S(=O)(=O)NCc2ccco2)cc1` the IC50 [1] was 6.65 µM (active).
In the case of `CCCN(CCC)CCNC(=O)c1cc2c(-c3ccccc3F)nn(C)c2s1`, the AC50 [2] is reported as > 20 µM (inactive).
In the case of `O=C1NC(=O)N(c2ccc(F)cc2)C(=O)/C1=C/Nc1ccccc1N1CCCC1`, the EC50 [3] is reported as 103 µM (active) and the EC50 [4] is reported as 76.7 µM (active).
In the case of `O=C(c1ccc([N+](=O)[O-])s1)N1CCCc2ccccc21`, the AC50 [5] is reported as 11.2 µM (active).
With `O=C(CCCOc1ccccc1)OCn1nnc2ccccc2c1=O` the IC50 (cells) was 3.55 µM (active).
For `Cc1ccc(N2C(=O)C3C4C=CC(CN=C(S)N5CCN(c6cccc(C)c6)C(C)C5)(O4)C3C2=O)cc1` (configuration not stated), the AC50 [6] was 8.5 µM (active).
With `Cc1ccccc1NC(=O)/C(C#N)=C\c1cc(C)n(-c2ccc(C(=O)O)cc2)c1C` the EC50 [3] was > 300 µM (not active) and the EC50 [4] was > 300 µM (not active).
In the case of `CC(C)OP(=O)(OC(C)C)C1(NS(=O)(=O)c2ccc(Cl)cc2)C=C(Cl)C(=O)C(Cl)=C1`, the IC50 (Genome polyprotein) is reported as 99.3 µM (active).
With `COc1ccc(/C=C(\C#N)C(=O)Nc2ccc3[nH]c(O)nc3c2)cc1` the IC50 [1] was 3.26 µM (active).
With `CN1CCN(C(=O)c2cc(COc3c(F)cccc3F)on2)CC1c1ccccc1` (configuration not stated) the AC50 [6] was 0.566 µM (active).
With `O=C(Nc1ccc(Cl)cn1)C1CCCN1S(=O)(=O)c1cccc2ccccc12` (configuration not stated) the AC50 [7] was 29.8 µM (active) and the AC50 [8] was 53.6 µM (active).
With `O=C(/C=C/c1ccccc1[N+](=O)[O-])c1ccccc1Br` the AC50 [9] was 7.14 µM (active) and the AC50 [6] was 4.37 µM (active).
In the case of `O=C(CN1CCN(S(=O)(=O)c2ccc(Cl)cc2)CC1)c1ccc(O)c(O)c1`, the AC50 [2] is reported as 4.91 µM (active).
In the case of `COc1cccc(NC(=O)C(=O)c2cn(CC(=O)N3CCOCC3)c3ccccc23)c1`, the EC50 [3] is reported as > 300 µM (not active) and the EC50 [4] is reported as > 300 µM (not active).
With `COCCN(C(=O)c1cc(-c2ccco2)nc2ccccc12)c1c(N)n(Cc2ccccc2)c(=O)[nH]c1=O` the IC50 [1] was 6.59 µM (active).
In the case of `CCOC(=O)C1CCCN(C2CC(=O)N(c3cccc(C(F)(F)F)c3)C2=O)C1` (configuration not stated), the AC50 [6] is reported as 7.53 µM (active).
For `CCN1CCN(C(=O)c2ccc3c(=O)n(Cc4ccccc4OC)c(=S)[nH]c3c2)CC1`, the EC50 [3] was > 300 µM (not active) and the EC50 [4] was > 300 µM (not active).
With `O=C(OCc1nnc(-c2ccccc2)o1)c1ccc(Br)o1` the IC50 (cells) was 20.1 µM (active).
With `CCN(C[C@H]1N[C@@](CC)(C(=O)OC)[C@H]2C(=O)N(Cc3ccccc3)C(=O)[C@@H]12)S(=O)(=O)c1ccc(C(F)(F)F)cc1` the AC50 [10] was 2.16 µM (active), the AC50 [7] was 1.3 µM (active) and the AC50 [8] was 1.79 µM (active). For the same molecule, the AC50 [11] was 1.3 µM (active).
With `O=C(CN(c1cc(C(F)(F)F)ccc1Cl)S(=O)(=O)c1ccccc1)NCc1cccnc1` the AC50 [10] was 5.21 µM (active), the AC50 [7] was 1.98 µM (active) and the AC50 [8] was 3.81 µM (active). The AC50 [11] was 3.01 µM (active).
In the case of `CCC(C)(C)NC(=O)C(c1ccc(C)cc1)N(CC1CCCO1)C(=O)c1csnn1` (configuration not stated), the AC50 [10] is reported as 7.81 µM (active), the AC50 [7] is reported as 4.81 µM (active) and the AC50 [8] is reported as 6.84 µM (active). For the same molecule, the AC50 [11] was 2.82 µM (active).
With `COC(=O)[C@@]1(Cc2ccccc2)[C@H]2C(=O)N(Cc3ccccc3)C(=O)[C@H]2[C@H]2CN=C(SCc3ccc(C#N)cc3)N21` the AC50 [10] was 4.69 µM (active), the AC50 [7] was 2.07 µM (active) and the AC50 [8] was 4.57 µM (active). For the same molecule, the AC50 [11] was 3.83 µM (active).
With `COc1ccc([C@@H]2[C@@H]3C(=O)N(C(C)(C)C)C(=O)[C@@H]3[C@]3(CC(C)C)C(=O)N(c4cccc(F)c4)C(=O)N23)cc1` the AC50 [10] was < 0.26 µM (active), the AC50 [7] was < 0.26 µM (active) and the AC50 [8] was < 0.26 µM (active). The AC50 [11] was < 0.26 µM (active).
With `N#CC1C(=O)Nc2cccnc21` (configuration not stated) the AC50 [2] was > 20 µM (inactive).
For `O=C(C[C@H]1CC[C@H]2[C@@H](COC[C@@H](O)CN2Cc2ccc(F)cc2)O1)NCc1ccccc1Cl`, the AC50 (Paired box protein Pax-8) was 23.7 µM (active).
In the case of `O=C(Cn1cc(/C=N/NC(=O)c2cccc(C(F)(F)F)c2)c2ccccc21)Nc1ccc(F)cc1`, the IC50 [1] is reported as 4.23 µM (active).
With `Nc1cc2[nH]cnc2c(=O)[nH]1` [DEZAGUANINE] the GI50 (SN12K1) was 13.8 µM (inactive) and the GI50 (P388/ADR) was 10.2 µM (inactive).
